Experimental data as given in US8969304B2, “Compositions and methods for the prevention of cancer in high risk patients” (The Institute for Cancer Research, priority 2010, dated 2015).
One block for each molecule: values may come before it. Residues, ends and D or L forms follow the SMILES beside them. No end group written: not given here.

Tests used:
[1] = target: T1, LH/hCG-R in MCF10F cells (Homo sapiens, UniProt P22888); assay: intracellular cAMP production (enzyme immunoassay); assay type: cell-based; details: 2.5 μg r-hCG/ml or 20 μM PPFC-879-81-95
T1 construct: For verifying the presence and functionality of the receptor in normal and transformed MCF10F cells; endogenous in cells; host or cells: MCF10F human breast epithelial cells
T1 sequence (P22888 27-699): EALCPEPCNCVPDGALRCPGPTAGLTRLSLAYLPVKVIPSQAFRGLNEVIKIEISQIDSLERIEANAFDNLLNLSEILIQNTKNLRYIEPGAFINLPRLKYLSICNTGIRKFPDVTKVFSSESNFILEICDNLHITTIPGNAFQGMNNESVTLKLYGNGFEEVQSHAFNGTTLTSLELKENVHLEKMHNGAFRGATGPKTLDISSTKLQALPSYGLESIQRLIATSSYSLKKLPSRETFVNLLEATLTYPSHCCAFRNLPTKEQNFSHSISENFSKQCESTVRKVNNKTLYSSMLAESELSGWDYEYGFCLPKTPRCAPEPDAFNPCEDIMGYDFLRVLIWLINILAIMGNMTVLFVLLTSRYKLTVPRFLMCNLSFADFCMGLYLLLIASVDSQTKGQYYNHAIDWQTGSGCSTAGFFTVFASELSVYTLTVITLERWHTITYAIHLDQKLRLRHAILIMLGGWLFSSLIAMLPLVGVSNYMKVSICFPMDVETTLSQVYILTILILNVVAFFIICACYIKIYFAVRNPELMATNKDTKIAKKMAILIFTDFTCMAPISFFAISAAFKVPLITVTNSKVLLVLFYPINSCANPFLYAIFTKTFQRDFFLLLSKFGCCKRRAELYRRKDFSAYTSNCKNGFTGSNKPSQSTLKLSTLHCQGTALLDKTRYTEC

[2] = tested on: human breast epithelial cells; assay: genomic analysis of r-hCG and peptide-treated cells; assay type: cell-based
Source text: The down-regulation of BMI1 supports the concept that the preventive effect of hCG results from the shifting of the stem cell 1 to stem cell 2 (Russo, J., et al., (2006) Front Biosci., 11:151-172). This is only one example of identification of the molecular determinants of hormone specificity which provide the means to target the CG/LH-R for activation thereby conferring the protective effects against breast cancer.

[3] = tested on: MCF-10F cells; assay: ductulogenesis and branching of MCF-10F cells in 3D collagen matrix; assay type: cell-based, human; details: MCF-10F cells in collagen matrix, added to the culture medium
Source text: (§1) The cells grow along hollow branches forming ductules lined by a monolayer of epithelial cells. […] For these studies, we designed oligopeptides of the hCG beta subunit and had them synthesized by AAPPTec, LLC, Louisville, Ky. We selected a 15 aa peptide with a sequence “N”-[…]-“C” (SEQ ID NO: 2) that encompasses aa 81-95 and was designated PPFC-879-81-95.

[4] = target: T2, LH/hCG-R in MA-10 cells (Mus musculus, UniProt P30730); assay: intracellular cAMP production (enzyme immunoassay); assay type: cell-based; details: 2.5 μg r-hCG/ml or 20 μM PPFC-879-81-95
T2 construct: endogenous in cells; host or cells: MA-10 mouse Leydig tumor cells
T2 sequence (P30730 27-700): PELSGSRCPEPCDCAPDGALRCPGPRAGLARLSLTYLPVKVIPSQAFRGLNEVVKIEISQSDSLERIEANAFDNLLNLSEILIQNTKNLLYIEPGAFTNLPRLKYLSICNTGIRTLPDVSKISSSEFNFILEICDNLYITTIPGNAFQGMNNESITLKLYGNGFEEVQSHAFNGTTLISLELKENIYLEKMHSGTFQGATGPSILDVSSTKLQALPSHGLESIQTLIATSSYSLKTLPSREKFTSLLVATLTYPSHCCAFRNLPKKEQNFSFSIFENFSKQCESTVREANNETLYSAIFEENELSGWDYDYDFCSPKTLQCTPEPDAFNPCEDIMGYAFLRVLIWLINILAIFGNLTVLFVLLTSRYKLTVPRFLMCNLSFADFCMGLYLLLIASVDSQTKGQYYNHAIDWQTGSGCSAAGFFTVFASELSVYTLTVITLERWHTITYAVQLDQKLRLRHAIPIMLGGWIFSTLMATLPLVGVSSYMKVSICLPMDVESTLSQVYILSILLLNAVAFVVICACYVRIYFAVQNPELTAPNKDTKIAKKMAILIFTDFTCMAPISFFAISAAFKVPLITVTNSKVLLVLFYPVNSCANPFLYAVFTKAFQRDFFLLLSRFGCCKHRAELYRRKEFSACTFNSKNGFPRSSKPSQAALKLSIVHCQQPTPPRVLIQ

[5] = tested on: MDA-MB-435; assay: invasiveness (cells traversing a matrigel membrane); assay type: cell-based, human
Source text: (§2) FIG. 2: (A) Effect of 17b-estradiol (E2), r-hCG and PPFC-879-81-95 peptide on formation of primary, secondary, and tertiary ducts by MCF10F cells grown in a collagen matrix. DMSO served as control. Ordinate, percentage of structures. (B) Effect of r-hCG and hCG peptide on colony formation. Only DMSO-treated (control) E2-cells formed solid masses. (C) Effect of r-hCG and hCG peptide on the invasive index of MCF10F, E2-transformed, E2T4, MCF-7 and MDA-MB-435 cells. Ordinate, number of cells traversing a matrigel membrane.
as §1

[6] = tested on: MCF-7; assay: as above; assay type: cell-based, human
Source text: as §2, §1

[7] = tested on: tumor derived E2T4 cells; assay: as above; assay type: cell-based, human
Source text: as §2, §1

[8] = tested on: MCF-10F cells; assay: as above; assay type: cell-based, human
Source text: as §2, §1

[9] = tested on: E2-transformed MCF-10F cells; assay: as above; assay type: cell-based, human
Source text: as §2, §1

[10] = tested on: E2-transformed MCF-10F cells; assay: solid mass formation and branching of E2-transformed MCF-10F cells in collagen; assay type: cell-based, human; details: compared with r-hCG
[11] = tested on: MCF-10F cells; assay type: cell-based, human
[12] = tested on: CXCR1; assay: real time RT-PCR, CXCR1 gene expression; assay type: cell-based, human
[13] = tested on: FAK/AKT/FOXO3A pathway; assay: FAK, AKT and FOXO3A expression (unpublished data); assay type: cell-based; details: previous results
[14] = target: T3, LH/hCG binding to rat ovarian membranes (Rattus norvegicus, UniProt P16235); details: among two series of overlapping peptides of hCG (ref. 15); cited from earlier work
T3 construct: from tissue; host or cells: rat ovarian membranes
T3 sequence (P16235 27-700): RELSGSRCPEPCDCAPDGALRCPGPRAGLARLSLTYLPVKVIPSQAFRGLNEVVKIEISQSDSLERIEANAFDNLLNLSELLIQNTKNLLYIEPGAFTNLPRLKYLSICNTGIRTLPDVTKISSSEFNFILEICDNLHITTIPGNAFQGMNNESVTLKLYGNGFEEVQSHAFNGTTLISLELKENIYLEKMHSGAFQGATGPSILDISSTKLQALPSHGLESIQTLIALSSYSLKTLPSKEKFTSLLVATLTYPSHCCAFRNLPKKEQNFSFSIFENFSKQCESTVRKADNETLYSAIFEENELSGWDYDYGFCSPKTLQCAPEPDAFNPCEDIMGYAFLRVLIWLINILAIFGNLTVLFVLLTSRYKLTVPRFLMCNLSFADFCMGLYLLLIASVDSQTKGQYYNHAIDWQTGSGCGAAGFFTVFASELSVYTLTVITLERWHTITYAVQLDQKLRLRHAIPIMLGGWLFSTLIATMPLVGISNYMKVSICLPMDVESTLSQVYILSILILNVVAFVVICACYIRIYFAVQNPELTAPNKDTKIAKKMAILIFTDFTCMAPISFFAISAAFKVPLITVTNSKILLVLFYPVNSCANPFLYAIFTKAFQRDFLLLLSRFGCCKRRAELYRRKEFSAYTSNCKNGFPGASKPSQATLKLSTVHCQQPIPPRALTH

[15] = tested on: GPR30; assay: real time RT-PCR, GPR30 gene expression; assay type: cell-based, human; details: treated MCF-10F cells, data not shown
[16] = tested on: LHCGR; assay: real time RT-PCR, LHCGR gene expression; assay type: cell-based, human
[17] = tested on: MCF-10F cells; details: cells treated with E2; cited from earlier work

- intracellular cAMP production [1]: time-dependent increase
- intracellular cAMP production [4]: time-dependent increase
Molecule: Ser-Tyr-Ala-Val-Ala-Leu-Ser-Cys-Gln-Cys-Ala-Leu-Cys-Arg-Arg (NH2) (SYAVALSCQCALCRR-NH2; cysteine pairing not given here) [PPFC-879-81-95, 15 aa peptide of the hCG beta subunit, aa 81-95]
- gene clusters activated or downregulated [2]: induced activation or downregulation of the same clusters of genes that were modified by either parity or r-hCG treatment
- number of secondary and tertiary ducts (branching pattern) [3]: increasing the number of secondary and tertiary ducts
- invasiveness [5]: inhibited invasiveness
- invasiveness [6]: inhibited invasiveness
- invasiveness [7]: inhibited invasiveness
- invasiveness [8]: inhibited invasiveness
- invasiveness [9]: inhibited invasiveness
- formation of solid masses in collagen [10]: abrogated more efficiently than r-hCG

Molecule: CC(C)C[C@H](NC(=O)[C@H](C)NC(=O)[C@@H](NC(=O)[C@@H]1CCCN1C(=O)[C@H](Cc1ccccc1)NC(=O)[C@@H](N)CO)C(C)C)C(=O)N[C@@H](CO)C(=O)N[C@@H](CS)C(=O)N[C@@H](CCCNC(=N)N)C(=O)N[C@@H](CS)C(=O)NCC(=O)N1CCC[C@H]1C(=O)N[C@@H](CS)C(=O)N[C@@H](CCCNC(=N)N)C(=O)N[C@@H](CCCNC(=N)N)C(N)=O [peptide, SFP VAL SCR CGP CRR-NH2] (H-SFPVALSCRCGPCRR-NH2; N-terminus assumed)
- cell proliferation inhibition, peptide versus hCG ([11]; days 10 and 12, p<0.02): more potent cell proliferation inhibitor than hCG
- decrease in the number of viable cells ([11]; human, 20 μM): 36-72%
- CXCR1 expression ([12]; MCF-10F, all along the treatment): down-regulated
- CXCR1 down-regulation, peptide versus hCG ([12]; last day of treatment (15), p<0.01): down-regulation of the receptor was more apparent in the peptide-treated cells than in hCG treated cells
- FAK and AKT [13]: decrease
- FOXO3A expression [13]: up-regulate
- inhibition of 125I-labeled hCG binding [14]: most potent inhibitor of LH/hCG binding
- GPR30 mRNA expression [15]: undetectable or very low values
- hCG receptor (LHCGR) gene expression ([16]; MCF-10F, from the first day of treatment on): up-regulated
- LHCGR gene expression, peptide versus hCG ([16]; last day of treatment (15th), p=0.06): tendency of the peptide to induce a higher levels gene expression than hCG

Molecule: C[C@]12CC[C@@H]3c4ccc(O)cc4CC[C@H]3[C@@H]1CC[C@@H]2O [E2, 17-β-estradiol]
- structures formed by MCF-10F cells in collagen after treatment [17]: forming instead spherical structures with a multilayered epithelium that exhibits marked atypia
